Measurements from ChEMBL document CHEMBL1201862, “PubChem BioAssay data set” (2004).
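Each compound was tested at five concentrations against cells in 96-well plates for 48 hours. GI50 = concentration required for 50% inhibition of growth.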 Activity calls are given as the source filed them. No stated cut-off is given here; in the data, active = GI50 up to about 1.1 µM and inactive = higher.

Tests used:
Test in all cases: growth of human tumour cells (NCI), 48 h
786-0 = test system: 786-0
A498 = test system: A498
A549 = test system: A549
ACHN = test system: ACHN
BT-549 = test system: BT-549
CAKI-1 = test system: CAKI-1
COLO 205 = test system: COLO 205
DLD-1 = test system: DLD-1
DMS-114 = test system: DMS-114
DMS-273 = test system: DMS-273
DU-145 = test system: DU-145
EKVX = test system: EKVX
HCC 2998 = test system: HCC 2998
HCT-116 = test system: HCT-116
HCT-15 = test system: HCT-15
HL-60 = test system: HL-60
HOP-18 = test system: HOP-18
HOP-62 = test system: HOP-62
HOP-92 = test system: HOP-92
HT-29 = test system: HT-29
Hs-578T = test system: Hs-578T
IGROV-1 = test system: IGROV-1
K562 = test system: K562
KM-20L2 = test system: KM-20L2
KM12 = test system: KM12
LOX IMVI = test system: LOX IMVI
LXFL 529 = test system: LXFL 529
M19-MEL = test system: M19-MEL
MCF7 = test system: MCF7
MDA-MB-231 = test system: MDA-MB-231
MDA-MB-435 = test system: MDA-MB-435
MDA-N = test system: MDA-N
Malme-3M = test system: Malme-3M
NCI-H226 = test system: NCI-H226
NCI-H23 = test system: NCI-H23
NCI-H460 = test system: NCI-H460
NCI-H522 = test system: NCI-H522
OVCAR-3 = test system: OVCAR-3
OVCAR-4 = test system: OVCAR-4
OVCAR-5 = test system: OVCAR-5
OVCAR-8 = test system: OVCAR-8
PC-3 = test system: PC-3
RPMI-8226 = test system: RPMI-8226
RXF 393 = test system: RXF 393
RXF 631 = test system: RXF 631
SF-268 = test system: SF-268
SF-295 = test system: SF-295
SK-MEL-28 = test system: SK-MEL-28
SK-MEL-2 = test system: SK-MEL-2
SK-MEL-5 = test system: SK-MEL-5
SK-OV-3 = test system: SK-OV-3
SNB-19 = test system: SNB-19
SNB-78 = test system: SNB-78
SR = test system: SR
T47D = test system: T47D
TK-10 = test system: TK-10
U-251 = test system: U-251
UACC-257 = test system: UACC-257
UACC-62 = test system: UACC-62
UO-31 = test system: UO-31
XF498 = test system: XF498

Q: Which GI50 (786-0) does the source give for `CCC/C(=N\NC(=S)N1CCN(c2ccccn2)CC1)c1ccccn1` here?
A: 25.1 nM (active)

Q: And the GI50 (A498)?
A: 541 nM (active)

Q: And the GI50 (A549)?
A: 118 nM (active)

Q: And the GI50 (ACHN)?
A: 20.7 nM (active)

Q: What about the GI50 (BT-549) of the same compound?
A: 21.2 nM (active)

Q: What about the GI50 (CAKI-1) of the same compound?
A: 179 nM (active)

Q: What about the GI50 (COLO 205) of the same compound?
A: 5.08 nM (active)

Q: What about the GI50 (DLD-1) of the same compound?
A: < 1 nM (active)

Q: And the GI50 (DMS-114)?
A: < 1 nM (active)

Q: And the GI50 (DMS-273)?
A: 1.17 nM (active)

Q: And the GI50 (DU-145)?
A: 1130 nM (inactive)

Q: What about the GI50 (EKVX) of the same compound?
A: 7.29 nM (active)

Q: What about the GI50 (HCC 2998) of the same compound?
A: 59.4 nM (active)

Q: What about the GI50 (HCT-116) of the same compound?
A: 1.22 nM (active)

Q: What about the GI50 (HCT-15) of the same compound?
A: 5.28 nM

Q: And the GI50 (HL-60)?
A: < 1 nM (active)

Q: What about the GI50 (HOP-18) of the same compound?
A: 8.87 nM (active)

Q: What about the GI50 (HOP-62) of the same compound?
A: 141 nM (active)

Q: What about the GI50 (HOP-92) of the same compound?
A: 233 nM (active)

Q: What about the GI50 (HT-29) of the same compound?
A: 1.37 nM (active)

Q: What about the GI50 (Hs-578T) of the same compound?
A: 213 nM (active)

Q: What about the GI50 (IGROV-1) of the same compound?
A: 2.34 nM (active)

Q: What about the GI50 (K562) of the same compound?
A: 1.17 nM (active)

Q: What about the GI50 (KM-20L2) of the same compound?
A: < 1 nM (active)

Q: What about the GI50 (KM12) of the same compound?
A: 14.6 nM (active)

Q: What about the GI50 (LOX IMVI) of the same compound?
A: 25.8 nM (active)

Q: And the GI50 (LXFL 529)?
A: < 1 nM (active)

Q: What about the GI50 (M19-MEL) of the same compound?
A: 36.6 nM (active)

Q: And the GI50 (MCF7)?
A: 4.57 nM (active)

Q: And the GI50 (MDA-MB-231)?
A: 31.1 nM (active)

Q: What about the GI50 (MDA-MB-435) of the same compound?
A: 133 nM (active)

Q: What about the GI50 (MDA-N) of the same compound?
A: 157 nM (active)

Q: And the GI50 (Malme-3M)?
A: 20.5 nM (active)

Q: What about the GI50 (NCI-H226) of the same compound?
A: 1060 nM (active)

Q: What about the GI50 (NCI-H23) of the same compound?
A: 8.81 nM (active)

Q: What about the GI50 (NCI-H460) of the same compound?
A: 36.2 nM (active)

Q: What about the GI50 (NCI-H522) of the same compound?
A: 41.3 nM (active)

Q: And the GI50 (OVCAR-3)?
A: 32.5 nM (active)

Q: What about the GI50 (OVCAR-4) of the same compound?
A: 191 nM (active)

Q: And the GI50 (OVCAR-5)?
A: 610 nM (active)

Q: What about the GI50 (OVCAR-8) of the same compound?
A: 3.14 nM (active)

Q: What about the GI50 (PC-3) of the same compound?
A: 15.2 nM (active)

Q: And the GI50 (RPMI-8226)?
A: 1.15 nM (active)

Q: And the GI50 (RXF 393)?
A: 269 nM (active)

Q: What about the GI50 (RXF 631) of the same compound?
A: 133 nM (active)

Q: And the GI50 (SF-268)?
A: 236 nM (active)

Q: What about the GI50 (SF-295) of the same compound?
A: 9.79 nM (active)

Q: And the GI50 (SK-MEL-28)?
A: 367 nM (active)

Q: And the GI50 (SK-MEL-2)?
A: 115 nM (active)

Q: What about the GI50 (SK-MEL-5) of the same compound?
A: 10.8 nM (active)

Q: What about the GI50 (SK-OV-3) of the same compound?
A: 437 nM (active)

Q: And the GI50 (SNB-19)?
A: 14.2 nM (active)

Q: And the GI50 (SNB-78)?
A: 583 nM (active)

Q: And the GI50 (SR)?
A: 1.91 nM (active)

Q: And the GI50 (T47D)?
A: 2.48 nM (active)

Q: What about the GI50 (TK-10) of the same compound?
A: 335 nM (active)

Q: And the GI50 (U-251)?
A: 3.12 nM (active)

Q: What about the GI50 (UACC-257) of the same compound?
A: 3.87 nM (active)

Q: And the GI50 (UACC-62)?
A: 3.6 nM (active)

Q: And the GI50 (UO-31)?
A: 70.2 nM (active)

Q: And the GI50 (XF498)?
A: < 1 nM (active)
